Reference: article PMC12865225 (Clinical and Translational Science, 2026)
Marks after values point to notes of the source that are not given here.

What was measured:
MRP2 = system: T1, MRP2; assay: Efflux transport assay in MRP2 HEK293 membrane vesicles; assay type: biochemical, human; details: 5 and 50 µM, 10 min
T1 construct: made in house; host or cells: membrane vesicles from HEK293 cells expressing the transporter

OAT3 = biological target: T2, OAT3 (Homo sapiens, UniProt Q8TCC7); assay: OAT3 inhibition, fluorescein uptake into HEK293 cells; assay type: cell-based; parameters: expressed in transfected cells; host or cells: HEK293 (recombinant baculovirus-mediated transduction); details: R = I max,u/IC50, FDA cut-off ≥ 0.1
T2 sequence (Q8TCC7 1-542): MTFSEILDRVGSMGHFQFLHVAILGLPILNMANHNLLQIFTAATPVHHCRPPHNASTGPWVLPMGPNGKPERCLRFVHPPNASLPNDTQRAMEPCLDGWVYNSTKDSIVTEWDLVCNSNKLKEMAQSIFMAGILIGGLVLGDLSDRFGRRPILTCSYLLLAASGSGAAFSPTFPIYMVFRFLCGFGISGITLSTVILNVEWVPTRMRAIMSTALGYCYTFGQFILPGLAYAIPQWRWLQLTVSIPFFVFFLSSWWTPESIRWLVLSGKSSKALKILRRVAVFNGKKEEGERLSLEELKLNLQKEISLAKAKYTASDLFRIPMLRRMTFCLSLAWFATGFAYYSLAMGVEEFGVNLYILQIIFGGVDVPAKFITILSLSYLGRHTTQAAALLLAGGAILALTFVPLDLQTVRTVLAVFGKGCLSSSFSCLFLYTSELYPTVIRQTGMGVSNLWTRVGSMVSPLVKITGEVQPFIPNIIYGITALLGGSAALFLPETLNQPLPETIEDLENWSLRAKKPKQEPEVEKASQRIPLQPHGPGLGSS
Experimental: The human transporters OATP1B1, OATP1B3, OATP2B1, and OAT1‐OAT4 and a negative control protein (enhanced yellow fluorescent protein, eYFP) were transiently expressed in human embryonic kidney 293 (HEK293) cells by recombinant baculovirus‐mediated transduction. Baculoviruses carrying human genes for the transporters were prepared as reported previously. HEK293 cells were cultured in DMEM containing 10% fetal bovine serum at 37°C and 5% CO2 and passaged two to three times per week. For the transport studies, 0.05 × 10^6 cells for 48‐well plates (OATPs) or 0.06 × 10^6 cells for 24‐well plates (OATs) were seeded onto cell‐culture treated well plates coated with poly‐D‐lysine. […]
In the OATP inhibition assays, inhibitors in warm TP‐buffer were directly applied to cells after media removal, followed by a 30‐min preincubation step in the presence of inhibitors. […] OAT1 and OAT3 cells were lysed with 200 μL of 1 M sodium hydroxide for 10 min, and 150 μL of these samples were transferred to a black well plate for fluorescein quantification. […]
For the inhibition data analysis, the average of measured concentrations in the control cells was subtracted from the average of measured concentrations in transporter‐expressing cells for each inhibitor concentration and then normalized to the vehicle sample that represents 100% transport activity. […]

Row | Structure (SMILES) | transport by MRP2 (MRP2) | Calculated R-value OAT3 (OAT3)
1 | Cc1onc(-c2c(Cl)cccc2Cl)c1C(=O)N[C@@H]1C(=O)N2[C@@H]1SC(C)(C)[C@@H]2C(=O)O [Dicloxacillin] | did not transport | 0.07 ^c
2 | Cc1onc(-c2c(F)cccc2Cl)c1C(=O)N[C@@H]1C(=O)N2[C@@H]1SC(C)(C)[C@@H]2C(=O)O [Flucloxacillin] | did not transport | 0.1 ^c
